From patent US20210122724A1, “TETRACARBOXYLIC DIANHYDRIDE, CARBONYL COMPOUND, POLYIMIDE PRECURSOR RESIN, AND POLYIMIDE” (ENEOS Corporation, priority 2018, published 2021)

Test: Solubility of tetracarboxylic dianhydride in organic solvent (visual, 50 mg sample)
Format: physicochemical
Description: As the samples, the tetracarboxylic dianhydride (exo/exo type BzDA) obtained in Example 2 and the tetracarboxylic dianhydride (endo/endo type BzDA) obtained in Comparative Example 2 were separately used to confirm the solubility of each tetracarboxylic dianhydride in an organic solvent as follows. Specifically, after 50 mg of the sample was added to a screw tube, an organic solvent was added little by little into the screw tube, and the amount of the sample dissolved was visually confirmed. Note that, as the organic solvents, N,N′-dimethylacetamide and N-methyl-2-pyrrolidone were used to confirm the solubility in the solvents.

Row | concentration of solution that can be prepared (solubility) (solvent N,N′-dimethylacetamide) | concentration of solution that can be prepared (solubility) (solvent N-methyl-2-pyrrolidone) | Structure (SMILES)
1 | < 1 % by mass | < 3.5 % by mass | O=C1OC(=O)C2C3CC(CC3c3ccc(C4CC5CC4C4C(=O)OC(=O)C54)cc3)C12 (stereo not drawn) [endo/endo type BzDA]
2 | ≥ 5 % by mass | ≥ 5 % by mass | O=C1OC(=O)C2C3CC(CC3c3ccc(C4CC5CC4C4C(=O)OC(=O)C54)cc3)C12 (stereo not drawn) [exo/exo type BzDA, exo,exo-5,5′-(1,4-phenylene)bis(bicyclo[2.2.1]heptane-2,3-exo-dicarboxylic anhydride)]
